Experimental data as given in patent US20120172450A1, “USE OF JASMONATE FOR IMPROVING SKELETAL MUSCLE FUNCTION” (BROADY HEALTH SCIENCES, LLC, priority 2010, published 2012).

Tested on: skeletal muscle fatigue and performance
Assay: Effect of Jasmone on Muscle Fatigue and Performance in exercising subjects
Format: in vivo, human
Method: Subjects ranged from 43 to 72 years old. Subjects took 50-100 micrograms of jasmone once a day. All subjects were currently performing various exercise programs. Individual data was collected as to the changes that were noted upon jasmone supplementation.
Subject one, was a person who ran and trained with weights on a regular basis. They took a simplified stress test measuring time to maximum heart rate on treadmill exertion. Pre-Jasmone time on treadmill to target heart rate was 9 minutes. Two weeks after taking Jasmone, stress test results improved to 11 minutes. After 4 weeks of jasmone protocol stress test time increased to 15 min. In addition, after 3 weeks they reported increased weight repetitions by 15 percent and within four weeks increased push ups by 20 percent with same level of exertion as before.
Subject two, was a person who ran on a regular basis. Prior to Jasmone, full exertion exercise routine consisted of approximately 2 miles at 4.5 miles per hour. After two weeks of Jasmone was able to increase routine to running time to 2.5 miles without difficulty.
Subject three (person one), was a person who biked on a regular basis. After 4 weeks of taking Jasmone they increased cycling distance by 50 percent and speed by 10 percent.
Subject four, a person reported who trained with weights on a regular basis, increased weight repetitions of 25% after 4 weeks of taking Jasmone. Subject four, a person regularly performed an exercise routine including weight machines. Prior to taking Jasmone, on a particular machine, they were able to perform 12 repetitions at 60 pds of weight. Two weeks after taking Jasmone was able to increase weight to 80 and repetitions increased to 14.
Subject five, was a person, who regularly exercised but due to travel was unable to maintain normal exercise routine during trial. […] Two examples of this include running through an airport carrying luggage and another running in extreme heat.

Structure (SMILES): CC/C=C\CC1=C(C)CCC1=O [Jasmone, jasmone]
- self-reported running ability (Subject five, normal exercise routine not maintained during trial): increased ability to run far and fast without getting winded
- increase in weight repetitions (Subject four, after 4 weeks of taking Jasmone): 25%
- self-reported strength and endurance (Subject four, after four weeks of Jasmone): felt increased strength and endurance
- repetitions on weight machine (Subject four, two weeks after taking Jasmone, prior 12 repetitions): 14
- weight on weight machine (Subject four, two weeks after taking Jasmone, prior 60 pds): 80 pds
- increase in weight repetitions (Subject one, after 3 weeks, same level of exertion as before): 15%
- stress test time (time on treadmill to target heart rate) (Subject one, after 4 weeks of jasmone, pre-Jasmone 9 minutes): 15 min
- time on treadmill to target heart rate (simplified stress test) (Subject one, two weeks after taking Jasmone, 50-100 micrograms once a day, pre-Jasmone 9 minutes): 11 min
- increase in push ups (Subject one, within four weeks, same level of exertion as before): 20%
- increase in cycling distance (Subject three (person one), after 4 weeks of taking Jasmone): 50%
- increase in cycling speed (Subject three, after 4 weeks of taking Jasmone): 10%
- workout fatigue (Subject two, after additional two weeks): workout fatigue continued to improve
- running routine distance (Subject two, after two weeks of Jasmone, prior approximately 2 miles at 4.5 miles per hour): 2.5 miles
